The Kinase Knowledgebase extract (Sharma et al. 2016)

How the values were obtained:
PIK3CA (human) = PIK3CA (human) (UniProt P42336); assay: Inhibition of PIK3CA Kinase Activity
PIK3CB (Human) = PIK3CB (Human) (UniProt P42338); assay: Inhibition of PIK3CB Kinase Activity
PIK3CG (human) = PIK3CG (human) (UniProt P48736); assay: Inhibition of PIK3CG Kinase Activity
PIK3CD (Human) = PIK3CD (Human) (UniProt O00329); assay: Inhibition of PIK3CD Kinase Activity
Sequence of PIK3CD (Human) (O00329 whole entry, looked up): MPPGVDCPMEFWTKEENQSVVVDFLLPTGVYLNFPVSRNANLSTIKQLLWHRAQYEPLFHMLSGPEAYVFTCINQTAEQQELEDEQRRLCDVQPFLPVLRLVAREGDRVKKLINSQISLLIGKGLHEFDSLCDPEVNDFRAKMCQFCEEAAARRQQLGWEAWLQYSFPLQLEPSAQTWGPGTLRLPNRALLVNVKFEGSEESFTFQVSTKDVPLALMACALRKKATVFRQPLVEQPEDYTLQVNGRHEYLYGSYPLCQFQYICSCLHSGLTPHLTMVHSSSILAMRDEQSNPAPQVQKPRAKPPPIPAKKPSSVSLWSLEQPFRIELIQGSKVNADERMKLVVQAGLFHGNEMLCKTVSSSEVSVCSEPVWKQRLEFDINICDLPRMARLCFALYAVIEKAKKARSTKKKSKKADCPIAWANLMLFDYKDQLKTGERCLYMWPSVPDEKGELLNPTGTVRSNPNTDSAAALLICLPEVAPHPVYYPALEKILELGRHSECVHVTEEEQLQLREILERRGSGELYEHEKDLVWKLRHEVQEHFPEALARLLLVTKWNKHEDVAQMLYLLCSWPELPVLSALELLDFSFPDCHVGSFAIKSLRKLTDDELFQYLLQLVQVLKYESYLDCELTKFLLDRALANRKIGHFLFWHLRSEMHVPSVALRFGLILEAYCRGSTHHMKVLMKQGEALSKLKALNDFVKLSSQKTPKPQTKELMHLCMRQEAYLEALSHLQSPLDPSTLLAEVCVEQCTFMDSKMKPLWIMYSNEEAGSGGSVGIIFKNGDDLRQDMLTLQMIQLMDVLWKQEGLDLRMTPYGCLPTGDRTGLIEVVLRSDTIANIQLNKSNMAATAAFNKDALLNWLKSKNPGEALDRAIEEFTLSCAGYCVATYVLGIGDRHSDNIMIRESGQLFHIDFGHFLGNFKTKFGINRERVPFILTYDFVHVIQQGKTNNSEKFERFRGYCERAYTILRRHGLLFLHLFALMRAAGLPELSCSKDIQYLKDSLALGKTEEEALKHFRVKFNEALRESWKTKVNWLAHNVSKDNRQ

Sequence of PIK3CA (human) (P42336 whole entry, looked up): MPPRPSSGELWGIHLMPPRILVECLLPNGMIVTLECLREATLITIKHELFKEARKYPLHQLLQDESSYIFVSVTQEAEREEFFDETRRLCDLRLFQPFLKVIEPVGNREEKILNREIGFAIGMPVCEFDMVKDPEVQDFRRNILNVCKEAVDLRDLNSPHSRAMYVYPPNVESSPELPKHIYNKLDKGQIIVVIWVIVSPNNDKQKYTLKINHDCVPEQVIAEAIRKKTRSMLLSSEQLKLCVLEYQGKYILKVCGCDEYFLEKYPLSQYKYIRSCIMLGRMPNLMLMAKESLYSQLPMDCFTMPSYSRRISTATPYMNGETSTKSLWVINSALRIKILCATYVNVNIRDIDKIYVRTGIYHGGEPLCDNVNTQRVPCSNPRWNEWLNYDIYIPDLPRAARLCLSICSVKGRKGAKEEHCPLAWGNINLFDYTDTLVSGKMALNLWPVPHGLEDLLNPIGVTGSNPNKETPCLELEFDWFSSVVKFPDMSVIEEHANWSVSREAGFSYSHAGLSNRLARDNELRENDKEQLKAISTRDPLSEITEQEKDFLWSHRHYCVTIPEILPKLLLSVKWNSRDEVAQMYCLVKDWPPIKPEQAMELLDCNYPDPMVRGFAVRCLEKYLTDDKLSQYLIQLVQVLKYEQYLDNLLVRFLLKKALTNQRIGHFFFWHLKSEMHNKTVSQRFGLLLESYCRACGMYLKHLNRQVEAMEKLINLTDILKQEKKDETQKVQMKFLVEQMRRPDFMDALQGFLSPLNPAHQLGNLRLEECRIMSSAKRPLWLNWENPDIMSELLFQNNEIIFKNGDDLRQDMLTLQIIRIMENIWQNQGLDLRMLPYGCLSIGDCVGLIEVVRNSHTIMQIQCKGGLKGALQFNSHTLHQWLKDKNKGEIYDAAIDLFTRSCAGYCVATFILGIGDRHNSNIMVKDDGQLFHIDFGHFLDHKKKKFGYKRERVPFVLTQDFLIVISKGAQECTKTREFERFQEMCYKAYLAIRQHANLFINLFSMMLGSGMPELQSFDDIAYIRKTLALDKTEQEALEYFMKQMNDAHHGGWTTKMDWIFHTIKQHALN
Sequence of PIK3CB (Human) (P42338 whole entry, looked up): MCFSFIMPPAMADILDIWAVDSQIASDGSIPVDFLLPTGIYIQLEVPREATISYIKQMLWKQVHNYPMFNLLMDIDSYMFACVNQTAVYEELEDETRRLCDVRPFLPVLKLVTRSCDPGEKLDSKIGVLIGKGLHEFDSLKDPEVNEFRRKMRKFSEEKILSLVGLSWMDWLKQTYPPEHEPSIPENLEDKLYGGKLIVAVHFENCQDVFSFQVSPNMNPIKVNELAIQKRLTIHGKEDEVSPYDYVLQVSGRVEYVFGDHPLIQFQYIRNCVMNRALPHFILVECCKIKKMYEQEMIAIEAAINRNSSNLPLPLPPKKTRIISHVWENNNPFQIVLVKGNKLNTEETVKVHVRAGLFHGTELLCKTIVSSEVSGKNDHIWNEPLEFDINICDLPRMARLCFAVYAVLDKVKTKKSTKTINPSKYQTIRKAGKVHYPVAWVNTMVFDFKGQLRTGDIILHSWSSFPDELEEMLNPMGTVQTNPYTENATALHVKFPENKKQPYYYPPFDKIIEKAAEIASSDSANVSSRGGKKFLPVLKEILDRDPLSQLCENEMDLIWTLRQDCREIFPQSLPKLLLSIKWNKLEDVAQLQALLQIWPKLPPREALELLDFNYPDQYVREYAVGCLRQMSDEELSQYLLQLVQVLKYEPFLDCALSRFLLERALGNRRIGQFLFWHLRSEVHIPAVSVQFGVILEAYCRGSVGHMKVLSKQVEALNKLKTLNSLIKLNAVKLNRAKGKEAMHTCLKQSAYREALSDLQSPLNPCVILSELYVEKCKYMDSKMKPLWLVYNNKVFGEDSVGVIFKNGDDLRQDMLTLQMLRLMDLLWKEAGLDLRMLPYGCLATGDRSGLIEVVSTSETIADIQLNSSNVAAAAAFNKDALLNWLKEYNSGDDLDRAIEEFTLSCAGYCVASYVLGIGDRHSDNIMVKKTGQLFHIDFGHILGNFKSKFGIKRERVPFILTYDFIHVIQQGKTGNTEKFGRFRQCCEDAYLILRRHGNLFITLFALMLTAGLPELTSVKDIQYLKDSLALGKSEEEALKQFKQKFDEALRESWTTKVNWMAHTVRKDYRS
Sequence of PIK3CG (human) (P48736 whole entry, looked up): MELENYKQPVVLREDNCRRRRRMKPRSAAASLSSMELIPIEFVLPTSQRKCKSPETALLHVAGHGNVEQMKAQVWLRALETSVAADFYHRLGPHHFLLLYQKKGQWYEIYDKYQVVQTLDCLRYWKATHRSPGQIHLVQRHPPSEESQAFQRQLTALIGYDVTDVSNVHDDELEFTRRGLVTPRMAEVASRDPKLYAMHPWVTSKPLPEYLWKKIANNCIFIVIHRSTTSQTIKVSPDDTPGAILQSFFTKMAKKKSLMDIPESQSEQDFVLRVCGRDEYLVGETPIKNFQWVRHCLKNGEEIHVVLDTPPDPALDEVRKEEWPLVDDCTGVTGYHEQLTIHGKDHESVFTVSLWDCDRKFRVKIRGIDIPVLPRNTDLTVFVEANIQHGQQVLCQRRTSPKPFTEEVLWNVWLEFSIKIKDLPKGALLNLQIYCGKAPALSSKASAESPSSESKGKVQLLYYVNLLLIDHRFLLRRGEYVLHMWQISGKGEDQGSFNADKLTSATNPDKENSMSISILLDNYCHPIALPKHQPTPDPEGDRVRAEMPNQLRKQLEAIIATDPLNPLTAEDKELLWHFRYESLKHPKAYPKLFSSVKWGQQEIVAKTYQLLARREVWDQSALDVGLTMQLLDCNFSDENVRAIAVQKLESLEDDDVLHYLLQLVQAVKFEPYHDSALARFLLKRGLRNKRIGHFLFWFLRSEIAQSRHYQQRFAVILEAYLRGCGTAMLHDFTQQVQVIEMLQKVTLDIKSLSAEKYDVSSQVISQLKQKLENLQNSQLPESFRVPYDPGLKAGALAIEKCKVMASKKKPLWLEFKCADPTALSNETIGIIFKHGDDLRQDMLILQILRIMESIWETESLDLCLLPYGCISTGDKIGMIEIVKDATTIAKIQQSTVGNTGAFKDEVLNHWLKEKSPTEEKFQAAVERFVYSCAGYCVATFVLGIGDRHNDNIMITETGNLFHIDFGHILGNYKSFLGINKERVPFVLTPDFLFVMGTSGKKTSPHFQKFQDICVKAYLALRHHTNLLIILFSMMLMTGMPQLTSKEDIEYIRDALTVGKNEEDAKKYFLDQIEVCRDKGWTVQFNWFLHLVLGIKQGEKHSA

In the case of `Cc1cc(F)ccc1Oc1cccc2c(=O)cc(N3CCOCC3)[nH]c12`, the IC50 (PIK3CA (human)) is reported as 20 nM and the IC50 (PIK3CB (Human)) is reported as 20 nM.
For `Cc1cc(NCc2ccccc2)c2nc(N3CCOCC3)cc(=O)n2c1`, the IC50 (PIK3CA (human)) was 50 nM, the IC50 (PIK3CG (human)) was greater than 10 µM and the IC50 (PIK3CB (Human)) was 50 nM.
`O=c1c2c(Cl)cccc2nc(CSc2ncnc3[nH]cnc23)n1-c1ccccc1-c1ccccc1` gave an IC50 (PIK3CA (human)) greater than 2000 nM, an IC50 (PIK3CD (Human)) of 50 nM and an IC50 (PIK3CG (human)) greater than 2 µM. It also gave an IC50 (PIK3CB (Human)) greater than 2000 nM.
In the case of `O=c1c(O)c(-c2ccc(O)c(O)c2)oc2cc(O)cc(O)c12`, the IC50 (PIK3CA (human)) is reported as 3800 nM.
